Results: patent publication US20230126375A1, “ENGINEERED BACTERIA AND METHODS OF PRODUCING SUSTAINABLE BIOMOLECULES” (PRESIDENT AND FELLOWS OF HARVARD COLLEGE, priority 2020, published 2023)
Entries after “also recorded” stand apart in the source; their conditions may differ.

Tested on: β-oxidation
Experiment: PHA co-polymer composition of lithotrophic C. necator strains with acrylic acid (GCMS of 3-hydroxy acid methyl esters)
Format: cell-based
Experimental: PHA extraction and analysis: After 48 hr of growth in the second media exchange, 100 ml lithotrophic PHA-producing C. necator cultures were induced with 0.3% arabinose where indicated along with 240 ug/mL acrylic acid where indicated and grown for 5 days at 30° C. Cultures were harvest, pelleted, and lyophilized overnight. Freeze dried pellets were weighed for dry cell weight. PHA was purified with 0.2 ml/mg DCW of 13% NaClO^− for 4 hr at 30° C., washed twice with dH2O, washed once with acetone, then dried at 25° C. overnight. 1:1 methanol and HCl in dioxane to a final volume of 3 ml (1% pentadecanoate as internal standard), the tubes were sealed with crimp top and incubated in oil bath at 90° C. for 20 hr. Tubes were placed on ice, once cooled, 2 ml of chloroform was added and vigorously vortexed, 3 ml of dH2O was added followed by extensive vortexing, the organic phase was separated by centrifugation (10 min, 4,000×g), organic phase removed and stored at −20° C. until GCMS analysis.
GCMS analysis: PHA samples were analyzed by GC-MS 5975/7890 (Agilent Technologies™) on a DB-35 ms column. Samples were heated on a gradient from 40 to 250° C. at 5° C./min. The co-polymer composition was determined with the mass spectra of the 3-hydroxy alkanoic acid methyl esters at m/z=103 and NIST Mass Spectral Library™.

C=CC(=O)O [acrylic acid]
effect on PHA composition (PAS826 (wildtype phaC) and PAS827 (ΔphaC), 240 μg/mL acrylic acid with induction): no effect; also recorded: not strongly affected
proportion of 3HO and 3HD (PAS828, 240 μg/mL acrylic acid): decreased to undetectable levels
contribution to PHA composition (PAS828 / PAS829 (UcFatB2, phaC1Pa), 240 μg/mL acrylic acid): did not contribute significantly
copolymer composition compared to no-acrylic acid condition (PAS829, 240 μg/mL acrylic acid): slightly enriched for longer-chain fatty acids
mcl-3HA proportion of PHA (PAS830 (native phaC, chim4, phaC1Ps), with acrylic acid, mean): 72.6%
3HO proportion of PHA (PAS830, with acrylic acid, mean): 54.6%
enrichment of mcl-3HAs (PAS831, after the addition of acrylic acid): minor enrichment
3HD proportion of PHA (PAS831, with acrylic acid, n=2): 7.1%
3HDD proportion of PHA (PAS831, with acrylic acid, n=2): 2.6%
3HO proportion of PHA (PAS831, with acrylic acid, n=2): 61.4%
3HTD proportion of PHA (PAS831, with acrylic acid, n=2): 1.2%
mcl-3HA proportion of PHA (PAS832 (native phaC, UcFatB2, phaC2Pa), with acrylic acid, n=3): 59.4%
3HDD proportion of PHA (PAS832, with acrylic acid, n=3): 36.3%
3HDD proportion of PHA (PAS833 (ΔphaC, UcFatB2, phaC2Pa), with acrylic acid): 60.3%
